Results published in US5681832A, “Aroylaniline compounds, pharmaceutical compositions, and methods of using same to inhibit viral activity” (priority 1995, dated 1997).
Counter-ions that a name gives are not always drawn. Like-named read-outs stand apart in the source and are kept apart here.

How the values were obtained:
HIV-1 = experiment: in vitro anti-HIV screening (NCI XTT soluble-formazan assay, protection of HIV-1-infected CEM T4 lymphocytes from cytolysis); format: cell-based; conditions: for EC50 / inhibition at 200 µM / inhibition at 20 µM / inhibition at 2 µM / inhibition at 0.2 µM / inhibition at 63.2 µM / inhibition at 6.33 µM / inhibition at 0.634 µM / inhibition at 0.0635 µM: Human immunodeficiency virus 1, CCRF-CEM; for EC50: 144 h, HIV-1-infected CEM cells, 6 days, approximate values, read-out: EC50 (Molar), 50% effective concentration; for inhibition at 200 µM / activity at 200 µM: 2.00 × 10^-4 Molar; for inhibition at 200 µM / inhibition at 20 µM / inhibition at 2 µM / inhibition at 0.2 µM / inhibition at 63.2 µM / inhibition at 6.33 µM / inhibition at 0.634 µM / inhibition at 0.0635 µM: read-out: Percent of Protection; for inhibition at 20 µM / activity at 20 µM: 2.00 × 10^-5 Molar; for inhibition at 2 µM / activity at 2 µM: 2.00 × 10^-6 Molar; for inhibition at 0.2 µM / activity at 0.2 µM: 2.00 × 10^-7 Molar; for inhibition at 6.33 µM / activity at 6.33 µM: 6.33 × 10^-6 Molar; for inhibition at 0.634 µM / activity at 0.634 µM: 6.34 × 10^-7 Molar; for inhibition at 0.0635 µM / activity at 0.0635 µM: 6.35 × 10^-8 Molar; for TI50 (IC/EC), therapeutic index: IC50/EC50; for Conclusion: NCI anti-HIV screen
Source text: The aroylaniline compounds of the present invention were subjected to in vitro screening to determine their anti-HIV activity.
The National Cancer Institute's procedure for testing for agents active against Human Immunodeficiency Virus (HIV) (Weislow, O. W. et al., "New soluble-formazan assay for HIV-1 cytopathic effects: application to high-flux screening of synthetic and natural products for AIDS-antiviral activity," J. Natl Cancer Inst., 81, 577-586 (1989)) is designed to detect agents acting at any stage of the virus reproductive cycle. The assay includes the killing of T4 lymphocytes by HIV. Pursuant to the test, small amounts of HIV are added to cells, and a complete cycle of virus reproduction is necessary to obtain the required cell killing. Agents that interact with virions, cells, or virus gene-products to interfere with viral activities will protect cells from cytolysis. The system is thus designed to detect anti-HIV activity. However, compounds that are chemically labile or are rapidly metabolized in the culture conditions may not show activity in this screen. All tests are compared with at least one positive (e.g., AZT-treated) control done at the same time under identical conditions.
(§1) 1. Candidate agent is dissolved in dimethyl sulfoxide (unless otherwise instructed) and then diluted 1:100 in cell culture medium before preparing serial half-log10 dilutions which are then to 96-well microfilter plates. T4 lymphocytes (CEM cell line) are added, and after a brief interval HIV-1 is added to all wells, resulting in a 1:200 final dilution […]. Uninfected cells with the compound serve as a toxicity control, and infected and uninfected cells without the compound serve as basic controls.
(§2) 2. Cultures are incubated at 37° C. in a 5% carbon dioxide atmosphere for 6 days.
(§3) 3. The tetrazolium salt, XTT, is added to all wells, and cultures are incubated to allow formazan color development by viable cells.
(§4) 4. Individual wells are analyzed spectrophotometrically to quantitate formazan production, and in addition are viewed microscopically for detection of viable cells and confirmation of protective activity.
(§5) 5. Drug-tested virus-infected cells are compared with drug-treated noninfected cells and with other appropriate controls (untreated infected and untreated noninfected cells, drug-containing wells without cells, etc.) on the same plate.
6. Data are reviewed in comparison with other tests done at the same time and a determination about activity is made.
The aroylaniline compounds of the present invention were tested for anti-HIV activity according to the above procedure. FIGS. 1-6 represent test results of the aroylaniline compounds of Compounds 1, 3, 13, 14, 29 and 32.
(§6) FIGS. 1 to 6 display a plot of the log10 of the concentrations (as μg/mL or molar as shown) of the aroylaniline compounds, Compounds 1, 3, 13, 14, 29 and 32, against the measured test values expressed as a percentage of the uninfected, untreated control values. The solid line depicts the percentage of surviving HIV-infected cells treated with sample (at the indicated concentration) relative to uninfected, untreated controls. Thus, the solid line expresses the anti-HIV activity of the compound. The dashed line depicts the percentage of surviving uninfected cells treated with the compound relative to the same uninfected, untreated controls. Thus, the dashed line expresses the growth inhibitory properties of the compound. The viral cytopathic effect […] is indicated by a dotted reference line. […] Survival values of this parameter less than 50% are considered acceptable in the current protocol. Approximate values for 50% effective concentration (EC50) have been calculated for each test and are set forth for these Compounds in Tables 2-7, respectively.

[1] = test system: T4 lymphocytes (CEM cell line); experiment: toxicity control: survival of uninfected T4 lymphocytes (CEM cell line) treated with compound (growth inhibition); format: cell-based; conditions: Homo sapiens, CCRF-CEM; for IC50: 144 h, read-out: IC50 (Molar); for activity at 0.0635 µM / activity at 0.2 µM / activity at 0.634 µM / activity at 2 µM / activity at 6.33 µM / activity at 20 µM / activity at 63.2 µM / activity at 200 µM: read-out: Percent of Control, Uninfected
Protocol: as §1, §2, §3, §4, §5, §6

[2] = Human immunodeficiency virus 1, CEM-T4, read-out: Percent of Control, Infected
[3] = Human immunodeficiency virus 1, CEM-T4, 6.32 × 10^-5 Molar, read-out: Percent of Control, Infected

Row | Structure (SMILES) | EC50 (HIV-1) [µM] | inhibition at 200 µM (HIV-1) [%] | inhibition at 20 µM (HIV-1) [%] | inhibition at 2 µM (HIV-1) [%] | inhibition at 0.2 µM (HIV-1) [%] | inhibition at 63.2 µM (HIV-1; 6.32 × 10^-5 Molar) [%] | inhibition at 6.33 µM (HIV-1) [%] | inhibition at 0.634 µM (HIV-1) [%] | inhibition at 0.0635 µM (HIV-1) [%] | activity at 200 µM (HIV-1; [2]) [%] | activity at 20 µM (HIV-1; [2]) [%] | activity at 2 µM (HIV-1; [2]) [%] | activity at 0.2 µM (HIV-1; [2]) [%] | activity at 63.2 µM (HIV-1; [3]) [%] | activity at 6.33 µM (HIV-1; [2]) [%] | activity at 0.634 µM (HIV-1; [2]) [%] | activity at 0.0635 µM (HIV-1; [2]) [%] | TI50 (IC/EC), therapeutic index (HIV-1) | Conclusion (HIV-1) | IC50 [1] [µM] | also measured
1 | O=C(O)CSCc1cc(C(=O)Nc2ccc(C=Cc3ccc(NC(=O)c4cc(CSCC(=O)O)c5cccnc5c4O)cc3S(=O)(=O)O)c(S(=O)(=O)O)c2)c(O)c2ncccc12 [Compound 14] | 0.805 | 27.6 | 16.6 | 147 | 17.6 | 6.56 | 151 | 25 | 16 | 29.8 | 19.1 | 146 | 20 | 9.36 | 149 | 27.2 | 18.5 | 2.05 × 10^+2 | CONFIRMED ACTIVE | 16.5 | activity at 0.0635 µM [1]: 80.2%; activity at 0.2 µM [1]: 88.9%; activity at 0.634 µM [1]: 122%; activity at 2 µM [1]: 206%; activity at 6.33 µM [1]: 221%; activity at 20 µM [1]: 15.5%; activity at 63.2 µM [1]: 2.52%; activity at 200 µM [1]: -0.84%
2 | O=C(Nc1ccc(C=Cc2ccc(NC(=O)c3cc(S(=O)(=O)O)c4cccnc4c3O)cc2S(=O)(=O)O)c(S(=O)(=O)O)c1)c1cc(S(=O)(=O)O)c2cccnc2c1O [Compound 1, 4,4'-di(8-hydroxy-5-sulfo-7-quinolinecarboxyamido)stilbene-2,2'disulfonic acid tetrasodium salt] | 1.44 | -26 | 107 | 68.6 | 5.09 | 85.6 | 121 | 3.41 | -5.09 | 4.26 | 105 | 76.2 | 27.9 | 89.1 | 116 | 26.6 | 20.1 | 8.28 × 10^+1 | CONFIRMED ACTIVE |  | IC50 ([1]; uninfected CEM cells, 6 days): 120 µM; activity at 200 µM ([1]; 2.00 × 10^-4 Molar): 6.47%; activity at 20 µM ([1]; 2.00 × 10^-5 Molar): 109%; activity at 2 µM ([1]; 2.00 × 10^-6 Molar): 106%; activity at 0.2 µM ([1]; 2.00 × 10^-7 Molar): 102%; activity at 63.2 µM ([1]; 6.32 × 10^-5 Molar): 104%; activity at 6.33 µM ([1]; 6.33 × 10^-6 Molar): 117%; activity at 0.634 µM ([1]; 6.34 × 10^-7 Molar): 105%; activity at 0.0635 µM ([1]; 6.35 × 10^-8 Molar): 97.6%
3 | O=C(O)CCSCc1cc(C(=O)Nc2ccc(C=Cc3ccc(NC(=O)c4cc(CSCCC(=O)O)c5cccnc5c4O)cc3S(=O)(=O)O)c(S(=O)(=O)O)c2)c(O)c2ncccc12 [Compound 13, 4,4'-di[5-(2-carboxyethylthiomethyl)-8-hydroxy-7-quinolinecarboxyamido]stilbene-2,2'-disulfonic acid tetrasodium salt] | 1.05 | -28 | 67.5 | 84.4 | -17.9 |  | 134 | 24.6 | 15.6 | 2.7 | 75.3 | 88.1 | 10.4 |  | 126 | 42.7 | 35.8 | 2.78 × 10^+1 | CONFIRMED ACTIVE | 29 | inhibition at 63.2 µM (HIV-1): 29.4%; activity at 63.2 µM (HIV-1; [2]): 1.63%; activity at 0.0635 µM [1]: 86.4%; activity at 0.2 µM [1]: 90.5%; activity at 0.634 µM [1]: 92.2%; activity at 2 µM [1]: 111%; activity at 6.33 µM [1]: 118%; activity at 20 µM [1]: 73.7%; activity at 63.2 µM [1]: 0.37%; activity at 200 µM [1]: 2.05%
